As usually defined, the IC50 is the concentration at which inhibition is half-maximal.

Some results are limits rather than exact numbers.

In US8377974B2 (Millennium Pharmaceuticals, Inc., priority 2004, dated 2013) one finds IC50 data, which are given here for 31 compounds.

T1 sequence (P00742 235-488 limits assumed): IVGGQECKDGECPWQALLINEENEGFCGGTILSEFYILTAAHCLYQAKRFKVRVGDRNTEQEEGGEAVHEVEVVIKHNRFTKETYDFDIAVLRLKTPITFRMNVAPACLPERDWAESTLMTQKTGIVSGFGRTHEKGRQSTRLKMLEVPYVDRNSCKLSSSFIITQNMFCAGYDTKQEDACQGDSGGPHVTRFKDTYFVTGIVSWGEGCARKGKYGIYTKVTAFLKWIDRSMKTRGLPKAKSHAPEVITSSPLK
T1 sequence (P00742 41-179 partner limits assumed): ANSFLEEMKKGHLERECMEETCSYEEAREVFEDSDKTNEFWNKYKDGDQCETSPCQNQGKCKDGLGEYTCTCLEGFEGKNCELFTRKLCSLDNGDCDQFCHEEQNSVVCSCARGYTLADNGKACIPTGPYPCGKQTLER

The experiment concerns the target T1, human plasma protein factor Xa (Homo sapiens, UniProt P00742).
T1 construct: measure proteolytic activity of the enzyme (factor Xa); purchased Haematologic Technologies (Essex Junction, Vt.); host or cells: human plasma
Put plainly: Factor Xa IC50 determination: cleavage of paranitroanilide substrate S-2765 in 96-well plates. The format is biochemical. The note with it: fXa 1 nM, S-2765 100 μM, Tris buffered saline pH 7.4, room temperature. In outline:
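Human plasma factor Xa (1 nM) preincubated 5 min at room temperature with inhibitor (0.01 nM–10 μM final) in Tris-buffered saline pH 7.4 with 5 mM CaCl2, 0.1% BSA, 5% DMSO. S-2765 at 100 μM final; hydrolysis at 405 nm over 2 min. IC50 from 4-parameter fit of initial velocities.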
As for `CCOC(=O)C1CCN(C(=N)c2ccc(-c3cc(CN(C)C(=O)c4ccc(Cl)s4)on3)cc2)CC1` [Example 39, 1-{[4-(5-{[(5-Chloro-thiophene-2-carbonyl)-methyl-amino]-methyl}-isoxazol-3-yl)-phenyl]-imino-methyl}-piperidine-4-carboxylic acid ethyl ester], the IC50 was at least 500 nM.

On to `COC(=O)c1ccccc1Nc1ccc(C2=NOC(CNC(=O)c3ccc(Cl)s3)C2)cc1` (stereo not shown) [Example 260, 2-[4-(5-{[(5-Chloro-thiophene-2-carbonyl)-amino]-methyl}-4,5-dihydro-isoxazol-3-yl)-phenylamino]-benzoic acid methyl ester], for which the IC50 is at least 500 nM.

Consider `CN1CCN=C1c1ccc(C2=NOC(CNC(=O)c3ccc(Cl)s3)C2)c(OC2CCCC2)c1` (stereo not shown) [Example 113, 5-Chloro-thiophene-2-carboxylic acid {3-[2-cyclopentyloxy-4-(1-methyl-4,5-dihydro-1H-imidazol-2-yl)-phenyl]-4,5-dihydro-isoxazol-5-ylmethyl}-amide], for which the half-inhibitory concentration (IC50) was at most 100 nM.

Compound `O=C(NCC1CC(c2ccc(N3CCOCC3)cc2)=NO1)c1ccc(Cl)s1` (stereo not shown) [Example 234, 5-Chloro-thiophene-2-carboxylic acid [3-(4-morpholin-4-yl-phenyl)-4,5-dihydro-isoxazol-5-ylmethyl]-amide] displayed an IC50 of at least 500 nM.

Compound `CN(c1ccncc1)c1ccc(C2=NOC(CNC(=O)c3ccc(Cl)s3)C2)cc1` (stereo not shown) [Example 227, 5-Chloro-thiophene-2-carboxylic acid {3-[4-(methyl-pyridin-4-yl-amino)-phenyl]-4,5-dihydro-isoxazol-5-ylmethyl}-amide] gave a half-maximal inhibitory concentration (IC50) of at most 100 nM.

`N=C(c1ccc(-c2cncc(CNC(=O)c3ccc(Cl)s3)c2)cc1)N1CCC1` [Example 371, N-((5-(4-(Azetidin-1-yl(imino)methyl)phenyl)pyridin-3-yl)methyl)-5-chlorothiophene-2-carboxamide] registered an IC50 of at most 100 nM.

For `CN1CCN=C1c1ccc(-n2cc(CNC(=O)c3ccc(Cl)s3)cn2)cc1` [Example 326, 5-Chloro-N-((1-(4-(1-methyl-4,5-dihydro-1H-imidazol-2-yl)phenyl)-1H-pyrazol-4-yl)methyl)thiophene-2-carboxamide], the half-inhibitory concentration (IC50) was at most 100 nM.

`O=C(NCC1CC(c2cccc(-c3ccc(CN4CCCC4)cc3)c2)=NO1)c1ccc(Cl)s1` (stereo not shown) [Example 267, 5-Chloro-thiophene-2-carboxylic acid [3-(4′-pyrrolidin-1-ylmethyl-biphenyl-3-yl)-4,5-dihydro-isoxazol-5-ylmethyl]-amide]: the IC50 was at least 500 nM.

For the compound `C[C@H](NC(=O)c1ccc(Cl)s1)c1cc(-c2ccc(C3=NCCN3C)cc2)no1` [Example 54, (S)-5-Chloro-thiophene-2-carboxylic acid (1-{3-[4-(1-methyl-4,5-dihydro-1H-imidazol-2-yl)-phenyl]-isoxazol-5-yl}-ethyl)-amide], the IC50 is at least 500 nM.

Compound `COc1ccc(CN2CCCC2)c(-c2ccc(C3=NOC(CNC(=O)c4ccc(Cl)s4)C3)cc2)c1` (stereo not shown) [Example 203, 5-Chloro-thiophene-2-carboxylic acid [3-(5′-methoxy-2′-pyrrolidin-1-ylmethyl-biphenyl-4-yl)-4,5-dihydro-isoxazol-5-ylmethyl]-amide] came in with an IC50 of at most 100 nM.

For `O=C(NCc1cc(-c2ccc(-c3ccc(CN4CCCC4)cc3)cc2)no1)c1ccc(Cl)s1` [Example 214, 5-Chloro-thiophene-2-carboxylic acid [3-(4′-pyrrolidin-1-ylmethyl-biphenyl-4-yl)-isoxazol-5-ylmethyl]-amide], the IC50 was at least 500 nM.

Consider `COCCN(C)C(=N)c1ccc(C2=NOC(CNC(=O)c3ccc(Cl)s3)C2)cc1` (stereo not shown) [Example 14, 5-Chloro-thiophene-2-carboxylic acid (3-{4-[N-(2-methoxy-ethyl)-N-methyl-carbamimidoyl]-phenyl}-4,5-dihydro-isoxazol-5-ylmethyl)-amide], for which the IC50 lay within 100 to 500 nM.

`CC(C)Oc1cc(C2=NCCN2C)ccc1C1=NOC(CNC(=O)c2ccc(Cl)s2)C1` (stereo not shown) [Example 110, 5-Chloro-thiophene-2-carboxylic acid {3-[2-isopropoxy-4-(1-methyl-4,5-dihydro-1H-imidazol-2-yl)-phenyl]-4,5-dihydro-isoxazol-5-ylmethyl}-amide] showed an IC50 of at most 100 nM.

In turn, `O=C(NCC1CC(c2cccc(-c3cccc(CN4CCCC4)c3)c2)=NO1)c1ccc(Cl)s1` (stereo not shown) [Example 265, 5-Chloro-thiophene-2-carboxylic acid [3-(3′-pyrrolidin-1-ylmethyl-biphenyl-3-yl)-4,5-dihydro-isoxazol-5-ylmethyl]-amide] showed a 50% inhibitory concentration (IC50) of at least 500 nM.

With `O=C(NCc1cn(-c2ccc(N3CCCNCC3)nc2)nn1)c1ccc(Cl)s1` [Example 384, N-((1-(6-(1,4-Diazepan-1-yl)pyridin-3-yl)-1H-1,2,3-triazol-4-yl)methyl)-5-chlorothiophene-2-carboxamide], the concentration for half-maximal inhibition (IC50) is at most 100 nM.

The compound `CC(C)Oc1cc(C(=N)N2CCCC2)ccc1-c1cc(CNC(=O)c2ccc(Cl)s2)on1` [Example 128, 5-Chloro-thiophene-2-carboxylic acid {3-[4-(imino-pyrrolidin-1-yl-methyl)-2-isopropoxy-phenyl]-isoxazol-5-ylmethyl}-amide] returned an IC50 of at most 100 nM.

For the compound `CC(NC(=O)c1ccc(Cl)s1)c1cc(-c2ccc(C(=N)N(C)C)cc2)no1` (stereo in doubt) [Example 53, (R)-5-Chloro-thiophene-2-carboxylic acid (1-{3-[4-(N,N-dimethyl-carbamimidoyl)-phenyl]-isoxazol-5-yl}-ethyl)-amide], the 50% inhibitory concentration (IC50) is at least 500 nM.

As to `CC1(CNC(=O)c2ccc(Cl)s2)CC(c2ccccc2)=NO1` (stereo not shown) [Example 145, 5-Chloro-thiophene-2-carboxylic acid (5-methyl-3-phenyl-4,5-dihydro-isoxazol-5-ylmethyl)-amide], the IC50 is at least 500 nM.

Take `CCOc1cc(C(=N)N(C)C)ccc1-c1cc(CNC(=O)c2ccc(Cl)s2)on1` [Example 122, 5-Chloro-thiophene-2-carboxylic acid {3-[4-(N,N-dimethyl-carbamimidoyl)-2-ethoxy-phenyl]-isoxazol-5-ylmethyl}-amide]: the IC50 was at most 100 nM.

With `CN1CCN=C1c1ccc(C2=NOC(C)(CNC(=O)c3ccc(Cl)s3)C2)cc1` (stereo not shown) [Example 58, 5-Chloro-thiophene-2-carboxylic acid {5-methyl-3-[4-(1-methyl-4,5-dihydro-1H-imidazol-2-yl)-phenyl]-4,5-dihydro-isoxazol-5-ylmethyl}-amide], the IC50 is at most 100 nM.

Turning to `O=C(NCC1CC(c2ccc(-c3ccccc3CN3CCOCC3)cc2)=NO1)c1ccc(Cl)s1` (stereo not shown) [Example 197, 5-Chloro-thiophene-2-carboxylic acid [3-(2′-morpholin-4-ylmethyl-biphenyl-4-yl)-4,5-dihydro-isoxazol-5-ylmethyl]-amide], the concentration for half-maximal inhibition (IC50) was at most 100 nM.

`N=C(c1ccc(-c2nc(CNC(=O)c3ccc(Cl)s3)co2)cc1)N1CCCCC1` [Example 341, 5-Chloro-N-((2-(4-(imino(piperidin-1-yl)methyl)phenyl)oxazol-4-yl)methyl)thiophene-2-carboxamide] returned a 50% inhibitory concentration (IC50) of at most 100 nM.

`Cc1cc(Nc2ccc(C3=NOC(CNC(=O)c4ccc(Cl)s4)C3)cc2)ccn1` (stereo not shown) [Example 228, 5-Chloro-thiophene-2-carboxylic acid {3-[4-(2-methyl-pyridin-4-ylamino)-phenyl]-4,5-dihydro-isoxazol-5-ylmethyl}-amide]: the 50% inhibitory concentration (IC50) was at least 500 nM.

As for `CN(C)C(=N)c1ccc(-n2cnc(CNC(=O)c3ccc(Cl)s3)c2)cc1` [Example 364, N-((1-(4-(N,N-Dimethylcarbamimidoyl)phenyl)-1H-imidazol-4-yl)methyl)-5-chlorothiophene-2-carboxamide], the 50% inhibitory concentration (IC50) is at most 100 nM.

The compound `CN1CCCN(c2ccc(C3=NOC(CNC(=O)c4ccc(Cl)s4)C3)c(F)c2)CC1` (stereo not shown) [Example 248, 5-Chloro-thiophene-2-carboxylic acid {3-[2-fluoro-4-(4-methyl-[1,4]diazepan-1-yl)-phenyl]-4,5-dihydro-isoxazol-5-ylmethyl}-amide] registered a concentration for half-maximal inhibition (IC50) of at most 100 nM.

`O=C(NCc1cn(-c2ccc(-n3ccccc3=O)cn2)nn1)c1ccc(Cl)s1` [Example 309, 5-Chloro-N-((1-(5-(2-oxopyridin-1(2H)-yl)pyridin-2-yl)-1H-1,2,3-triazol-4-yl)methyl)thiophene-2-carboxamide] gave a concentration for half-maximal inhibition (IC50) of at most 100 nM.

As to `O=C(NCC1CC(c2ccc(N3CCN(C(=O)OCc4ccccc4)CC3=O)cc2)=NO1)c1ccc(Cl)s1` (stereo not shown) [Example 242, 4-[4-(5-{[(5-Chloro-thiophene-2-carbonyl)-amino]-methyl}-4,5-dihydro-isoxazol-3-yl)-phenyl]-3-oxo-piperazine-1-carboxylic acid benzyl ester], the IC50 is at most 100 nM.

Turning to `N=C(c1ccc(-c2cncc(CNC(=O)c3ccc(Cl)s3)c2)cc1)N1CCCCC1` [Example 373, 5-Chloro-N-((5-(4-(imino(piperidin-1-yl)methyl)phenyl)pyridin-3-yl)methyl)thiophene-2-carboxamide], the IC50 was at most 100 nM.

The compound `N=C(c1ccc(-c2cc(CNC(=O)c3ccc(Cl)s3)on2)cc1)N1CCC1` [Example 26, 5-Chloro-thiophene-2-carboxylic acid {3-[4-(azetidin-1-yl-imino-methyl)-phenyl]-isoxazol-5-ylmethyl}-amide] displayed a half-maximal inhibitory concentration (IC50) of at most 100 nM.

`CN(C)C(=N)c1ccc(C2=NOC(CNC(=O)c3ccc(Cl)s3)C2)c(OC2CCCC2)c1` (stereo not shown) [Example 112, 5-Chloro-thiophene-2-carboxylic acid {3-[2-cyclopentyloxy-4-(N,N-dimethyl-carbamimidoyl)-phenyl]-4,5-dihydro-isoxazol-5-ylmethyl}-amide] returned an IC50 of at most 100 nM.

Compound `O=C(NCc1cn(-c2ccc(-n3ccccc3=O)nc2)nn1)c1ccc(Cl)s1` [Example 389, 5-Chloro-N-((1-(6-(2-oxopyridin-1(2H)-yl)pyridin-3-yl)-1H-1,2,3-triazol-4-yl)methyl)thiophene-2-carboxamide] yielded a half-maximal inhibitory concentration (IC50) of at most 100 nM.
